According to patent US5214047A, “Tetracyclic quinazoline derivatives, effective as antiarrythmic agents” (priority 1987, dated 1993):
Where a name gives a salt, the structure may show the parent alone. Read-outs that look alike come from different tables or passages of the source.

System: QT interval
Assay: QT interval prolongation (ECG, class III action) in anesthetized guinea pigs
Assay type: in vivo, Pirbright white guinea pigs
Conditions: for ED (20%): Cavia porcellus, read-out: Prolongation of the QT interval ED20%; for Potency relative to that of d-sotalol = 1.0: QT prolongation, ED20%
Procedure: The action of the novel substances has been tested as follows:
The experimental animals used were male and female Pirbright white guinea pigs weighing 300-500 g. 1.5 g/kg urethane i.p. were used for anesthesia. The substances were administered intravenously. The extremity lead II was recorded to measure the ECG conduction times and the heart rate. The measured variables were the QT and PQ intervals and the heart rate. 4-6 animals were used for each dose. The criterion for a class III action was an increase in the QT interval compared with the values before administration of the substance. A PQ increase and a large decrease in the heart rate were used as exclusion criteria. The ED20% is calculated from the linear relation between log dose (mg/kg) of the substance and the relative prolongation of the QT interval (Δ%).

[1] = guinea pigs, urethane anesthesia, intravenous, dose for 20% QT prolongation calculated from log dose (mg/kg) vs relative QT prolongation

Row | Structure (SMILES) | ED (20%) [1] [mg/kg] | Potency relative to that of d-sotalol = 1.0 (guinea pigs, intravenous) | ED (20%) (iv) [mg/kg]
1 | CC(C)NC[C@@H](O)c1ccc(NS(C)(=O)=O)cc1 [d-sotalol, reference compound] | 3.6 |  | 
2 | c1csc(C23CCCN2c2ccccc2C2=NCCCN23)c1 (centres unmarked) [Example 25] | 0.58 | 6.2 | 
3 | Fc1ccc(C23CCCN2c2ccc(Cl)cc2C2=NCCCN23)cc1 (centres unmarked) [Example 30, 13-Chloro-6-(4-fluorophenyl)-2,3,5,6,7,8-hexahydro-2H-pyrimido[1,2-c]pyrrolo[1,2-a]quinazoline] | 1 | 3.6 | 
4 | Fc1ccc(C23CCCN2c2ccccc2C2=NCCCN23)cc1 (centres unmarked) [Example 27, 6-(4-Fluorophenyl)-2,3,5,6,7,8-hexahydro-2H-pyrimido[1,2-c]pyrrolo[1,2-a]quinazoline] | 0.42 | 8.7 | 
5 | CC1(C)CN=C2c3ccccc3N3CCCC3(c3ccc([N+](=O)[O-])cc3)N21 (centres unmarked) [Example 46, 2,3,5,6,7,8-Hexahydro-3,3-dimethyl-5-(4-nitrophenyl)imidazo[1,2-c]pyrrolo[1,2-a]quinazoline hydrochloride] | 0.55 | 6.7 | 
6 | CC1CN=C2c3ccccc3N3CCCC3(c3ccccc3)N21 (centres unmarked) [Example 24, hydrochloride] | 0.29 | 12 | 
7 | Clc1ccc(C23CCCN2c2ccccc2C2=NCCN23)s1 (centres unmarked) [Example 19, 5-(2-(5-Chlorothienyl))-2,3,5,6,7,8-hexahydroimidazo[1,2-c]pyrrolo[1,2-a]quinazoline hydrochloride] | 1.4 | 2.6 | 
8 | O=[N+]([O-])c1ccc(C23CCCN2c2ccccc2C2=NCCCN23)cc1 (centres unmarked) [Example 34, 2,3,5,6,7,8-Hexahydro-6-(4-nitrophenyl)-2H-pyrimido[1,2-c]pyrrolo[1,2-a]quinazoline] | 0.61 | 6.0 | 
9 | Fc1ccc(C23CCCN2c2cc(Cl)ccc2C2=NCCN23)cc1 (centres unmarked) [Example 15, 11-Chloro-5-(4-fluorophenyl)-2,3,5,6,7,8-hexahydroimidazo[1,2-c]pyrrolo[1,2-a]quinazoline hydrochloride] | 0.43 | 8.5 | 
10 | CC1(C)CCN=C2c3ccccc3N3CCCC3(c3ccc([N+](=O)[O-])cc3)N21 (centres unmarked) [Example 47, 2,3,5,6,7,8-Hexahydro-4,4-dimethyl-6-(4-nitrophenyl)-2H-pyrimido[1,2-c]pyrrolo[1,2-a]quinazoline hydrochloride] | 0.52 | 7.0 | 
11 | CC1(C)CN=C2c3ccccc3N3CCCC3(c3ccc(F)cc3)N21 (centres unmarked) [Example 45, hydrochloride] | 0.59 | 6.2 | 
12 | COc1cc2c(cc1OC)N1CCCC1(c1ccccc1)N1CCN=C21 (centres unmarked) [Example 5, 2,3,5,6,7,8-Hexahydro-11,12-dimethoxy-5-phenylimidazo[1,2-c]pyrrolo[1,2-a]quinazoline] | 1 | 3.5 | 
13 | CC1(C)CCN=C2c3ccccc3N3CCCC3(c3ccccc3)N21 (centres unmarked) [Example 44, 2,3,5,6,7,8-Hexahydro-4,4-dimethyl-6-phenyl-2H-pyrimido[1,2-c]pyrrolo[1,2-a]quinazoline hydrochloride] | 0.49 | 7.4 | 
14 | Cc1ccc(C23CCCN2c2ccccc2C2=NCCN23)cc1 (centres unmarked) [Example 1, 2,3,5,6,7,8-Hexahydro-5-(4-methylphenyl)imidazo[1,2-c]pyrrolo[1,2-a]quinazoline] | 1 | 3.6 | 
15 | COc1ccc(C23CCCN2c2ccccc2C2=NCCN23)cc1 (centres unmarked) [Example 8] | 0.61 | 6.0 | 
16 | CC1(C)CN=C2c3ccccc3N3CCCC3(c3ccc([N+](=O)[O-])cc3)N2C1 (centres unmarked) [Example 42, 2,3,5,6,7,8-Hexahydro-3,3-dimethyl-6-(4-nitrophenyl)-2H-pyrimido[1,2-c]pyrrolo[1,2-a]quinazoline hydrochloride] | 0.78 | 4.7 | 
17 | CS(=O)(=O)Oc1ccc(C23CCCN2c2ccccc2C2=NCCN23)cc1 (centres unmarked) [Example 53, hydrochloride] | 1 | 3.6 | 
18 | Fc1ccc(C23CCCN2c2ccccc2C2=NCCN23)cc1 (centres unmarked) [Example 4, 5-(4-Fluorophenyl)-2,3,5,6,7,8-hexahydroimidazo[1,2-c]pyrrolo[1,2-a]quinazoline] | 0.21 | 17 | 

Row | Structure (SMILES) | ED (20%) [1] [mg/kg] | Potency relative to that of d-sotalol = 1.0 (guinea pigs, intravenous) | ED (20%) (iv) [mg/kg]
19 | CC1(C)CN=C2c3ccccc3N3CCCC3(c3ccccc3)N2C1 (centres unmarked) [Example 41, 2,3,5,6,7,8-Hexahydro-3,3-dimethyl-6-phenyl-2H-pyrimido[1,2-c]pyrrolo[1,2-a]quinazoline hydrochloride] | 0.46 | 7.8 | 
20 | c1ccc(C23CCCN2c2ccccc2C2=NCCN23)cc1 (centres unmarked) [Example 50, hydrochloride] | 0.25 | 15 | 
21 | Clc1ccc(C23CCCN2c2ccccc2C2=NCCN23)cc1 (centres unmarked) [Example 2] |  | 3.3 | 1.1
22 | Clc1ccc2c(c1)N1CCCC1(c1ccccc1)N1CCCN=C21 (centres unmarked) [Example 37, 12-Chloro-2,3,5,6,7,8-hexahydro-6-phenyl-2H-pyrimido[1,2-c]pyrrolo[1,2-a]quinazoline hydrochloride] | 0.69 | 5.3 | 
23 | COc1ccc(C23CCCN2c2ccccc2C2=NCCCN23)cc1 (centres unmarked) [Example 35, 2,3,5,6,7,8-Hexahydro-6-(4-methoxyphenyl)-2H-pyrimido[1,2-c]pyrrolo[1,2-a]quinazoline hydrochloride] | 0.63 | 5.7 | 
24 | Clc1ccc(C23CCCN2c2ccccc2C2=NCCN23)c(Cl)c1 (centres unmarked) [Example 13, 5-(2,4-Dichlorophenyl)-2,3,5,6,7,8-hexahydroimidazo[1,2-c]pyrrolo[1,2-a]quinazoline hydrochloride] | 0.99 | 3.7 | 
25 | Clc1ccc2c(c1)C1=NCCCN1C1(c3ccccc3)CCCN21 (centres unmarked) [Example 29, 13-Chloro-2,3,5,6,7,8-hexahydro-6-phenyl-2H-pyrimido[1,2-c]pyrrolo[1,2-a]quinazoline hydrochloride] | 0.55 | 6.6 | 
26 | Clc1ccc(C23CCCN2c2ccccc2C2=NCCCN23)cc1Cl (centres unmarked) [Example 28, 6-(3,4-Dichlorophenyl)-2,3,5,6,7,8-hexahydro-2H-pyrimido[1,2-c]pyrrolo[1,2-a]quinazoline] | 0.94 | 3.9 | 
27 | O=[N+]([O-])c1cccc(C23CCCN2c2ccccc2C2=NCCCN23)c1 (centres unmarked) [Example 31, 2,3,5,6,7,8-Hexahydro-6-(3-nitrophenyl)-2H-pyrimido[1,2-c]pyrrolo[1,2-a]quinazoline] | 0.56 | 6.5 | 
28 | Clc1ccc(C23CCCN2c2ccccc2C2=NCCN23)cc1Cl (centres unmarked) [Example 9] | 1.5 | 2.4 | 
29 | c1ccc(C23CCCN2c2ccccc2C2=NCCCN23)cc1 (centres unmarked) [Example 49, 2,3,5,6,7,8-Hexahydro-6-phenyl-2H-pyrimido[1,2-c]pyrrolo[1,2-a]quinazoline hydrochloride] | 0.32 | 11 | 
30 | CC1(C)CN=C2c3ccccc3N3CCCC3(c3ccccc3)N21 (centres unmarked) [Example 43, 2,3,5,6,7,8-Hexahydro-3,3-dimethyl-5-phenylimidazo[1,2-c]pyrrolo[1,2-a]quinazoline hydrochloride] | 0.6 | 6.1 | 
31 | Clc1ccc(C23CCCN2c2ccccc2C2=NCCCN23)cc1 (centres unmarked) [Example 26, 6-(4-Chlorophenyl)-2,3,6,7,8,9-hexahydro-2H-pyrimido[1,2-c]pyrrolo[1,2-a]quinazoline] | 1.5 | 2.4 | 
32 | Clc1ccc(C23CCCN2c2ccccc2C2=NCCCN23)s1 (centres unmarked) [Example 33, 6-(2-(5-Chlorothienyl))-2,3,5,6,7,8-hexahydro-2H-pyrimido[1,2-c]pyrrolo[1,2-a]quinazoline] | 1.5 | 2.4 | 
33 | CC1CN=C2c3ccccc3N3CCCC3(c3ccc([N+](=O)[O-])cc3)N21 (centres unmarked) [Example 48, 2,3,5,6,7,8-Hexahydro-3-methyl-5-(4-nitrophenyl)imidazo[1,2-c]pyrrolo[1,2-a]quinazoline hydrochloride] | 0.31 | 11.8 | 
34 | Fc1ccc(C23CCCN2c2cc(Cl)ccc2C2=NCCCN23)cc1 (centres unmarked) [Example 38, 2-Chloro-6-(4-fluorophenyl)-2,3,5,6,7,8-hexahydro-2H-pyrimido[1,2-c]pyrrolo[1,2-a]quinazoline hydrochloride] | 0.83 | 4.4 | 
35 | O=[N+]([O-])c1ccc(C23CCCN2c2ccccc2C2=NCCN23)cc1 (centres unmarked) [Example 21, 2,3,5,6,7,8-Hexahydro-5-(4-nitrophenyl)imidazo[1,2-c]pyrrolo[1,2-a]quinazoline hydrochloride] | 0.46 | 8.0 | 
36 | Clc1ccc2c(c1)N1CCCC1(c1ccccc1)N1CCN=C21 (centres unmarked) [Example 11, 11-Chloro-2,3,5,6,7,8-hexahydro-5-phenylimidazo[1,2-c]pyrrolo[1,2-a]quinazoline] | 0.4 | 9.0 | 
